Test system: MV-4-11 cells
Test: Gene expression microarray analysis (Affymetrix PrimeView) and GSEA
Format: cell-based, human
Set-up: RFU PODN (11730768_x_at) / Fold change /veh PODN (11730768_x_at) / RFU LINC00158 (11744669_a_at) / Fold change /veh LINC00158 (11744669_a_at) / RFU DUSP10 (11751237_a_at) / Fold change /veh DUSP10 (11751237_a_at) / RFU ID3 (11757404_x_at) / Fold change /veh ID3 (11757404_x_at) / RFU PLEKHG5 (11737974_s_at) / Fold change /veh PLEKHG5 (11737974_s_at) / RFU LRRC4B (11730491_at) / Fold change /veh LRRC4B (11730491_at) / RFU GIMAP4 (11747438_a_at) / Fold change /veh GIMAP4 (11747438_a_at) / RFU KRT8 (11758183_x_at) / Fold change /veh KRT8 (11758183_x_at) / RFU CNN1 (11734310_a_at) / Fold change /veh CNN1 (11734310_a_at) / RFU VPS37D (11726825_at) / Fold change /veh VPS37D (11726825_at) / RFU C10orf10 (11716522_x_at) / Fold change /veh C10orf10 (11716522_x_at) / RFU KIR2DL2 /// KIR2DL4 /// KIR2DL5A /// KIR2DL5B /// KIR2DS1 /// KIR2DS2 /// KIR2DS3 /// KIR2DS4 /// KIR3DL3 /// KIR3DL3 /// KIR3DS1 (11738374_at) / Fold change /veh KIR2DL2 /// KIR2DL4 /// KIR2DL5A /// KIR2DL5B /// KIR2DS1 /// KIR2DS2 /// KIR2DS3 /// KIR2DS4 /// KIR3DL3 /// KIR3DL3 /// KIR3DS1 (11738374_at) / RFU C1QL1 (11718748_at) / Fold change /veh C1QL1 (11718748_at) / RFU TMPRSS4 (11747572_a_at) / Fold change /veh TMPRSS4 (11747572_a_at) / RFU HAMP (11756126_x_at) / Fold change /veh HAMP (11756126_x_at) / RFU RNFT2 (11725882_a_at) / Fold change /veh RNFT2 (11725882_a_at) / RFU NR4A2 (11747474_a_at) / Fold change /veh NR4A2 (11747474_a_at) / RFU ABCC12 (11746883_a_at) / Fold change /veh ABCC12 (11746883_a_at) / RFU TMEM136 (11760407_x_at) / Fold change /veh TMEM136 (11760407_x_at) / RFU CLDN22 /// WWC2 (11732394_at) / Fold change /veh CLDN22 /// WWC2 (11732394_at) / RFU HLA-DPB1 (11760878_x_at) / Fold change /veh HLA-DPB1 (11760878_x_at) / RFU SPINT1 (11716480_a_at) / Fold change /veh SPINT1 (11716480_a_at) / RFU GAP43 (11754022_s_at) / Fold change /veh GAP43 (11754022_s_at) / RFU A4GNT (11735810_at) / Fold change /veh A4GNT (11735810_at) / RFU PRB3 (11715151_x_at) / Fold change /veh PRB3 (11715151_x_at) / RFU TUBB4B (11761932_at) / Fold change /veh TUBB4B (11761932_at) / RFU CAPN14 (11732068_a_at) / Fold change /veh CAPN14 (11732068_a_at) / RFU TMCC2 (11721928_a_at) / Fold change /veh TMCC2 (11721928_a_at) / RFU IRGQ (11745062_a_at) / Fold change /veh IRGQ (11745062_a_at) / RFU FAM174B (11720279_a_at) / Fold change /veh FAM174B (11720279_a_at) / RFU TMPRSS4 (11748680_a_at) / Fold change /veh TMPRSS4 (11748680_a_at) / RFU FAM212B (11763350_a_at) / Fold change /veh FAM212B (11763350_a_at) / RFU PLEKHG5 (11743358_a_at) / Fold change /veh PLEKHG5 (11743358_a_at) / RFU ZSCAN30 (11745921_a_at) / Fold change /veh ZSCAN30 (11745921_a_at) / RFU CMKLR1 (11741424_a_at) / Fold change /veh CMKLR1 (11741424_a_at) / RFU LOC101060620 /// MAPK8IP1 (11723275_at) / Fold change /veh LOC101060620 /// MAPK8IP1 (11723275_at) / RFU SPTSSB (11747773_x_at) / Fold change /veh SPTSSB (11747773_x_at) / RFU PRSS12 (11739890_at) / Fold change /veh PRSS12 (11739890_at) / RFU BIN1 (11741810_x_at) / Fold change /veh BIN1 (11741810_x_at) / RFU WNT11 (11732464_a_at) / Fold change /veh WNT11 (11732464_a_at) / RFU C10orf10 (11716521_a_at) / Fold change /veh C10orf10 (11716521_a_at) / RFU C5orf56 (11738089_at) / Fold change /veh C5orf56 (11738089_at) / RFU CYB561 (11721691_x_at) / Fold change /veh CYB561 (11721691_x_at) / RFU ANKRD19P (11752326_a_at) / Fold change /veh ANKRD19P (11752326_a_at) / RFU OR2T12 /// OR2T33 /// OR2T8 (11738714_s_at) / Fold change /veh OR2T12 /// OR2T33 /// OR2T8 (11738714_s_at) / RFU VCAN (11748164_a_at) / Fold change /veh VCAN (11748164_a_at) / RFU JSRP1 (11732532_at) / Fold change /veh JSRP1 (11732532_at) / RFU KRTAP10-11 (11738290_x_at) / Fold change /veh KRTAP10-11 (11738290_x_at) / RFU MYO3A (11730013_a_at) / Fold change /veh MYO3A (11730013_a_at) / RFU EBF3 (11725865_a_at) / Fold change /veh EBF3 (11725865_a_at) / RFU CAMK2N1 (11719241_x_at) / Fold change /veh CAMK2N1 (11719241_x_at) / RFU C5orf56 (11738088_a_at) / Fold change /veh C5orf56 (11738088_a_at) / RFU OLFML3 (11715873_a_at) / Fold change /veh OLFML3 (11715873_a_at) / RFU LOC100653217 /// NTM (11731650_a_at) / Fold change /veh LOC100653217 /// NTM (11731650_a_at) / RFU MAPK11 (11762145_a_at) / Fold change /veh MAPK11 (11762145_a_at) / RFU FIZ1 (11724087_x_at) / Fold change /veh FIZ1 (11724087_x_at) / RFU OASL (11726364_x_at) / Fold change /veh OASL (11726364_x_at) / RFU SOX15 (11748057_x_at) / Fold change /veh SOX15 (11748057_x_at) / RFU CD79A (11719716_a_at) / Fold change /veh CD79A (11719716_a_at) / RFU HIST1H1D (11736915_at) / Fold change /veh HIST1H1D (11736915_at) / RFU CASKIN2 (11723855_a_at) / Fold change /veh CASKIN2 (11723855_a_at) / RFU LOC730098 (11760151_x_at) / Fold change /veh LOC730098 (11760151_x_at) / RFU OR4N2 (11742367_at) / Fold change /veh OR4N2 (11742367_at) / RFU PRRT2 (11749266_a_at) / Fold change /veh PRRT2 (11749266_a_at) / RFU SNX32 (11753110_a_at) / Fold change /veh SNX32 (11753110_a_at) / RFU CDHR5 (11726645_a_at) / Fold change /veh CDHR5 (11726645_a_at) / RFU RCAN1 (11760418_a_at) / Fold change /veh RCAN1 (11760418_a_at) / RFU FAM167A (11723789_a_at) / Fold change /veh FAM167A (11723789_a_at) / RFU FAM26E (11764081_at) / Fold change /veh FAM26E (11764081_at) / RFU ISYNA1 (11749810_s_at) / Fold change /veh ISYNA1 (11749810_s_at) / RFU ACY1 (11761880_at) / Fold change /veh ACY1 (11761880_at) / RFU 11764098_at / Fold change /veh 11764098_at / RFU SAMD14 (11745864_x_at) / Fold change /veh SAMD14 (11745864_x_at) / RFU NPB (11741838_a_at) / Fold change /veh NPB (11741838_a_at) / RFU TMPRSS6 (11731388_a_at) / Fold change /veh TMPRSS6 (11731388_a_at) / RFU KRTAP10-2 (11738614_at) / Fold change /veh KRTAP10-2 (11738614_at) / RFU ARHGAP8 /// PRR5-ARHGAP8 (11727945_x_at) / Fold change /veh ARHGAP8 /// PRR5-ARHGAP8 (11727945_x_at) / RFU KRTAP5-7 /// NADSYN1 (11734609_at) / Fold change /veh KRTAP5-7 /// NADSYN1 (11734609_at) / RFU RASL12 (11751679_a_at) / Fold change /veh RASL12 (11751679_a_at) / RFU CDKN2B (11736163_a_at) / Fold change /veh CDKN2B (11736163_a_at) / RFU PRF1 (11729649_at) / Fold change /veh PRF1 (11729649_at) / RFU, ZNF638 /// ZNF638-IT1 / Fold change vs veh, ZNF638 /// ZNF638-IT1 / RFU, PANK3 / Fold change vs veh, PANK3 / RFU, SH3YL1 / Fold change vs veh, SH3YL1 / RFU, ZEB2 / Fold change vs veh, ZEB2 / RFU, NRIP1 / Fold change vs veh, NRIP1 / RFU, PTTG1IP / Fold change vs veh, PTTG1IP / RFU, CAPN2 / Fold change vs veh, CAPN2 / RFU, MED14 / Fold change vs veh, MED14 / RFU, SNORA58 / Fold change vs veh, SNORA58 / RFU, C1orf63 / Fold change vs veh, C1orf63 / RFU, LRRFIP1 / Fold change vs veh, LRRFIP1 / RFU, NDUFAF7 / Fold change vs veh, NDUFAF7 / RFU, SLC12A2 / Fold change vs veh, SLC12A2 / RFU, IBTK / Fold change vs veh, IBTK / RFU, ESF1 / Fold change vs veh, ESF1 / Fold change vs veh, TMEM50B / RFU, TAOK1 / Fold change vs veh, TAOK1 / RFU, ACBD3 / Fold change vs veh, ACBD3 / RFU, TMA16 / Fold change vs veh, TMA16 / RFU, RWDD3 / Fold change vs veh, RWDD3 / RFU, BCAT1 / Fold change vs veh, BCAT1 / RFU, EDEM3 / Fold change vs veh, EDEM3 / RFU, TMEM33 / Fold change vs veh, TMEM33 / RFU, WDR75 / Fold change vs veh, WDR75 / RFU, AHCTF1 / Fold change vs veh, AHCTF1 / RFU, TFRC / Fold change vs veh, TFRC / RFU, ZDHHC17 / Fold change vs veh, ZDHHC17 / RFU, NOM1 / Fold change vs veh, NOM1 / RFU, ARL8B / Fold change vs veh, ARL8B / RFU, ZBTB11 / Fold change vs veh, ZBTB11 / RFU, TAMM41 / Fold change vs veh, TAMM41 / RFU, KIAA1704 /// LOC100996395 / Fold change vs veh, KIAA1704 /// LOC100996395 / RFU, ING1 / Fold change vs veh, ING1 / RFU, TRMT61B / Fold change vs veh, TRMT61B / RFU, FUBP3 / Fold change vs veh, FUBP3 / RFU, TP53 / Fold change vs veh, TP53 / RFU, TNKS2 / Fold change vs veh, TNKS2 / RFU, ZFP14 / Fold change vs veh, ZFP14 / RFU, ACTR2 / Fold change vs veh, ACTR2 / RFU, PPP3R1 / Fold change vs veh, PPP3R1 / RFU, PIK3R1 / Fold change vs veh, PIK3R1 / RFU, HNRNPA1 / Fold change vs veh, HNRNPA1 / RFU, RNF170 / Fold change vs veh, RNF170 / RFU, ZNF28 / Fold change vs veh, ZNF28 / RFU, RNGTT / Fold change vs veh, RNGTT / RFU, OGT / Fold change vs veh, OGT / RFU, BRD1 / Fold change vs veh, BRD1 / RFU, MARS / Fold change vs veh, MARS / RFU, ZNF655 / Fold change vs veh, ZNF655 / RFU, FAHD1 / Fold change vs veh, FAHD1 / RFU, BDP1 / Fold change vs veh, BDP1 / RFU, LRRCC1 / Fold change vs veh, LRRCC1 / RFU, ARID1A / Fold change vs veh, ARID1A / RFU, ZNF146 / Fold change vs veh, ZNF146 / RFU, ZNF330 / Fold change vs veh, ZNF330 / RFU, GPN3 / Fold change vs veh, GPN3 / RFU, C9orf123 / Fold change vs veh, C9orf123 / RFU, N4BP2L2 / Fold change vs veh, N4BP2L2 / RFU, ARFIP1 / Fold change vs veh, ARFIP1 / RFU, FAM179B / Fold change vs veh, FAM179B / RFU, BCL10 / Fold change vs veh, BCL10 / RFU, UHRF1BP1L / Fold change vs veh, UHRF1BP1L / RFU, BET1 / Fold change vs veh, BET1 / RFU, CNOT2 / Fold change vs veh, CNOT2 / RFU, ZNF268 / Fold change vs veh, ZNF268 / Fold change vs veh, ZNF507 / RFU, DGCR2 / Fold change vs veh, DGCR2 / RFU, WDSUB1 / Fold change vs veh, WDSUB1 / Fold change vs veh, HSP90B1 /// MIR3652 / RFU, ADSS / Fold change vs veh, ADSS / RFU, GK / Fold change vs veh, GK / RFU, ZNF148 / Fold change vs veh, ZNF148 / RFU, TAF9 / Fold change vs veh, TAF9 / RFU, SLC1A5 / Fold change vs veh, SLC1A5 / RFU, SLMO2 / Fold change vs veh, SLMO2 / RFU, ABCC4 / Fold change vs veh, ABCC4 / RFU, LOC101060439 /// RAP1B / Fold change vs veh, LOC101060439 /// RAP1B / RFU, RFX7 / Fold change vs veh, RFX7 / RFU, GTPBP10 / Fold change vs veh, GTPBP10 / RFU, CNEP1R1 / Fold change vs veh, CNEP1R1 / RFU, BIVM-ERCC5 /// ERCC5 / Fold change vs veh, BIVM-ERCC5 /// ERCC5 / RFU, ILF3 / Fold change vs veh, ILF3 / RFU 11762660_at / Fold change /veh 11762660_at / RFU VCAN (11757783_s_at) / Fold change /veh VCAN (11757783_s_at) / RFU DDX43 (11728927_at) / Fold change /veh DDX43 (11728927_at) / RFU KRT8 (11758188_x_at) / Fold change /veh KRT8 (11758188_x_at) / RFU NKD1 (11759106_at) / Fold change /veh NKD1 (11759106_at) / RFU SRD5A1 (11742802_a_at) / Fold change /veh SRD5A1 (11742802_a_at) / RFU TPSAB1 /// TPSB2 (11721975_s_at) / Fold change /veh TPSAB1 /// TPSB2 (11721975_s_at) / RFU GSTM3 (11746129_a_at) / Fold change /veh GSTM3 (11746129_a_at) / RFU IL23R (11737362_x_at) / Fold change /veh IL23R (11737362_x_at) / RFU TMEM51 (11727254_a_at) / Fold change /veh TMEM51 (11727254_a_at) / RFU PIWIL2 (11732686_x_at) / Fold change /veh PIWIL2 (11732686_x_at) / RFU ORM1 (11744905_x_at) / Fold change /veh ORM1 (11744905_x_at) / RFU CCDC152 (11743942_at) / Fold change /veh CCDC152 (11743942_at) / RFU ECM1 (11717891_a_at) / Fold change /veh ECM1 (11717891_a_at) / RFU IL23R (11748794_a_at) / Fold change /veh IL23R (11748794_a_at) / RFU TNFAIP8L3 (11732012_x_at) / Fold change /veh TNFAIP8L3 (11732012_x_at) / RFU MBOAT4 (11741988_at) / Fold change /veh MBOAT4 (11741988_at) / RFU 11764193_at / Fold change /veh 11764193_at / RFU TMEM53 (11763286_at) / Fold change /veh TMEM53 (11763286_at) / RFU MAGEB2 (11727129_at) / Fold change /veh MAGEB2 (11727129_at) / RFU TMEM200A (11744735_a_at) / Fold change /veh TMEM200A (11744735_a_at) / RFU CCDC152 (11751479_a_at) / Fold change /veh CCDC152 (11751479_a_at) / RFU FAM211A (11726209_a_at) / Fold change /veh FAM211A (11726209_a_at) / RFU RGS16 (11746705_a_at) / Fold change /veh RGS16 (11746705_a_at) / RFU VCAN (11755009_s_at) / Fold change /veh VCAN (11755009_s_at) / RFU RHOB (11743442_s_at) / Fold change /veh RHOB (11743442_s_at) / RFU RGS16 (11720943_a_at) / Fold change /veh RGS16 (11720943_a_at) / RFU RGS16 (11720944_at) / Fold change /veh RGS16 (11720944_at) / RFU, VPS4B / Fold change vs veh, VPS4B / RFU, CREB1 / Fold change vs veh, CREB1 / RFU, DNAJC13 / Fold change vs veh, DNAJC13 / RFU, GNAQ / Fold change vs veh, GNAQ / RFU, CDK5R1 / Fold change vs veh, CDK5R1 / RFU, ZRANB3 / Fold change vs veh, ZRANB3 / RFU, CUL4A / Fold change vs veh, CUL4A / RFU, CCNY / Fold change vs veh, CCNY / RFU, UFL1 / Fold change vs veh, UFL1 / RFU, COG3 / Fold change vs veh, COG3 / RFU, DIAPH2 / Fold change vs veh, DIAPH2 / RFU, SKA2 / Fold change vs veh, SKA2 / RFU, AFF3 / Fold change vs veh, AFF3 / RFU, LMF1 / Fold change vs veh, LMF1 / RFU, IPO11 / Fold change vs veh, IPO11 / RFU, DFFB / Fold change vs veh, DFFB / RFU, FOXP1 / Fold change vs veh, FOXP1 / RFU, CARD8 / Fold change vs veh, CARD8 / RFU, STRN3 / Fold change vs veh, STRN3 / RFU, ADK / Fold change vs veh, ADK / RFU, RASSF2 / Fold change vs veh, RASSF2 / RFU, WIPF1 / Fold change vs veh, WIPF1 / RFU, LARP1B / Fold change vs veh, LARP1B / RFU, RASA1 / Fold change vs veh, RASA1 / RFU, RB1 / Fold change vs veh, RB1 / RFU, PPFIA1 / Fold change vs veh, PPFIA1 / RFU, MAT2A / Fold change vs veh, MAT2A / RFU, CCT5 / Fold change vs veh, CCT5 / RFU, WDR92 / Fold change vs veh, WDR92 / RFU, CUX1 / Fold change vs veh, CUX1 / RFU, TTC7A / Fold change vs veh, TTC7A / RFU, TMEM135 / Fold change vs veh, TMEM135 / RFU, DEPTOR / Fold change vs veh, DEPTOR / RFU, CPM / Fold change vs veh, CPM / RFU, DNAJB6 / Fold change vs veh, DNAJB6 / RFU, CACNA2D3 / Fold change vs veh, CACNA2D3 / RFU, DTX4 / Fold change vs veh, DTX4 / RFU, TFCP2 / Fold change vs veh, TFCP2 / RFU, GMCL1 /// GMCL1P1 / Fold change vs veh, GMCL1 /// GMCL1P1 / RFU, AEBP2 / Fold change vs veh, AEBP2 / RFU, SNHG1 /// SNORD22 /// SNORD25 /// SNORD26 /// SNORD27 /// SNORD28 /// SNORD29 /// SNORD31 / Fold change vs veh, SNHG1 /// SNORD22 /// SNORD25 /// SNORD26 /// SNORD27 /// SNORD28 /// SNORD29 /// SNORD31 / Fold change (Aza/veh), C12orf56 (ProbeSet 11735607_a_at) / Fold change (ACY-1035/veh), C12orf56 (ProbeSet 11735607_a_at) / Fold change (Aza/veh), FGFR1OP (ProbeSet 11751329_s_at) / Fold change (ACY-1035/veh), FGFR1OP (ProbeSet 11751329_s_at) / Fold change (Aza/veh), VPS36 (ProbeSet 11739960_a_at) / Fold change (ACY-1035/veh), VPS36 (ProbeSet 11739960_a_at) / RFU SYPL1 (11715823_x_at) / Fold change /veh SYPL1 (11715823_x_at) / RFU IGFBP7 (11715501_s_at) / Fold change /veh IGFBP7 (11715501_s_at) / RFU REEP3 (11722064_at) / Fold change /veh REEP3 (11722064_at) / RFU IGLL1 (11728026_x_at) / Fold change /veh IGLL1 (11728026_x_at): dose or concentration left out as unconfirmed
Settings: ProbeSet 11732306_x_at; LIST D

## Nc1ccc(-c2cccs2)cc1NC(=O)c1ccc2c(c1)cc(C1CC1)n2CCN1CCOCC1 [ACY-1035]
  RFU, CREB1: 287.35 RFU

Reference: PMC5218480 (PLoS ONE, 2017)
